From US6235738A, “Diphenyl-substituted heterocycles with 6-membered ring, processes for the preparation thereof and the use thereof as medicaments” (Boehringer Ingelheim Pharma KG, priority 1998, dated 2001) come the findings set out here.

Experiment [1] concerns AMPA receptor. Briefly: Inhibition of the signal induced by kainate on AMPA receptor (electrophysiology on neuronal cells, Patch-Clamp method). The experiment is classed as cell-based. The conditions noted are these: concentration not given. The procedure: The effected on AMPA receptor was tested by electrophysiology on neuronal cells (Patch-Clamp method) (M. L. Mayer, L. Vyklicky and G. L. Westbrook, J. Physiol. 415(1989) 329-350).
Inhibition of the signal induced by kainate on AMPA receptor

Experiment [2] has as its target Na^+ canal site 2 binding site. The experiment in a line: Affinity for the "Na^+ canal site 2" binding site. The settings on record: tests typically at a test concentration of 10 μM. As for the experimental part: The test of affinity for the "Na^+ canal site 2" binding site was carried out as described by G. B. Brown (J. Neurosci. 6 (1986) 2064). Tests were carried out typically at a test concentration of 10 μM.

The term Ki denotes a measure of affinity in units of concentration, obtained from inhibition or displacement. Lower therefore signals tighter binding. For `CN(C)CCOc1ccccc1-c1ccnc(-c2ccccc2)n1` [Example 4, 4-{2-[2-(N,N-Dimethylamino)ethyl]oxy-phenyl}-2-phenyl-pyrimidine], the “AMPA Inh.” value in experiment [1] came out at 96%. In experiment [2], this molecule showed an inhibition constant (Ki) of 4000 nM.

`CN(C)CCOc1ccccc1-c1ncnc(-c2ccccc2)n1` [Example 6, 2-{2-[2-(N,N-Dimethylamino)ethyl]oxy-phenyl}-4-phenyl-1,3,5-triazine]: the “AMPA Inh.” value in experiment [1] was 66%. This molecule returned an inhibition constant Ki in experiment [2] of 2800 nM.

With `CN(C)CCOc1ccccc1-c1cnnc(-c2ccccc2)n1` [Example 7, 5-{2-[2-(N,N-Dimethylamino)ethyl]oxy-phenyl}-3-phenyl-1,2,4-triazine], the “AMPA Inh.” value in experiment [1] was determined as 98%. In addition, the Ki in experiment [2] came out at 2400 nM. `CN(C)CCOc1ccccc1-c1nncc(-c2ccccc2)n1` [Example 8, 3-{2-[2-(N,N-Dimethylamino)ethyl]oxy-phenyl}-5-phenyl-1,2,4-triazine]: the “AMPA Inh.” value in experiment [1] is 95%.
